Results published in US8431613B2, “Memory fixation accelerator” (Research Foundation ITSUU Laboratory, priority 2004, dated 2013).
Marks after values point to notes of the source that are not given here.

Test system: Slc:Wistar male rats given scopolamine
Assay: Passive avoidance reaction (shuttle type avoidance test box) in scopolamine-treated rats
Assay type: in vivo, rat
Settings: for latent time compared with the control group: Example 2, scopolamine 0.25 or 0.5 mg/kg, drug treatment from the 2nd day
Protocol: 6-Week old Slc:Wistar male rats were used for the experiment after preliminary breeding including one week of quarantine. The animals were individually bred under an environment at a temperature of 22±3° C. and a humidity of 50±20% with illumination of 12 hours (8:00 to 20:00) for both the preliminary breeding and experimental periods, and the animals were given pellets (Labo MR Stock, Nihon Nosan Kogyo K.K.) and tap water ad libitum. The animals were divided into groups according to body weights as an index (10 animals/group), and trials for acquisition and reproduction of memory were performed. Each trial was performed by using a shuttle type avoidance test box. […] Each animal was put into the light room, time until the animal moved to the dark room (latent time) was measured up to 5 minutes, and when the rat moved to the darkroom, the partition was shut, and shock was given by electrification.
Each animal was subcutaneously given 0.5 mg/kg of scopolamine 30 minutes before the trial, and this procedure was continued for seven days. Scopolamine, which is an anticholinergic agent, is known to block the muscarinic acetylcholine receptor in the striate body and inhibit acquisition of new memory (Folia Pharmacol. Jpn., 97, pp. 351-359, 1991). From the third day, the test substance (Am80: 4-[(5,6,7,8-tetrahydro-5,5,8,8-tetramethyl-2-naphthalenyl)carbamoyl]benzoic acid, 10 mg/kg/day) was orally given 3 hours before the scopolamine treatment. With numerical values obtained, average and standard deviation were calculated for each group, and a homoscedasticity test was performed by F-test between the control group (no Am80 treatment) and Am80-treated group. When homoscedasticity was observed, presence or absence of significant difference was determined by Student's t-test, and when non-homoscedasticity was observed, presence or absence of significant difference was determined by Aspin-Welch's t-test.
A test was performed in the same manner as that of Example 1, except that scopolamine was given at a dose of 0.25 mg/kg or 0.5 mg/kg, and 2 mg/kg, 5 mg/kg or 12.5 mg/kg of Am80, 30 mg/kg of Tac101 (4-[(3,5-bis-trimethylsilylphenyl)-carboxamido]benzoic acid), and 10 mg/kg of HX630 (4-[2,3-(2,5-dimethyl-2,5-hexano)dibenzo[b,f][1,4]thiazepin-11-yl]benzoic acid) were given. Combinatory use of Am80 (5 mg/kg) and HX630 (10 mg/kg) was also similarly examined. Drug treatment was performed from the 2nd day.
In the same manner as that of Example 2, scopolamine was given at a dose of 0.25 mg/kg, and 10 mg/kg of 4-[5-(4,7-dimethylbenzofuran-2-yl)pyrrol-2-yl]benzoic acid (IT-K-1001) was orally given.

`CC1(C)CCC(C)(C)c2cc(NC(=O)c3ccc(C(=O)O)cc3)ccc21` [Am80, 4-[(5,6,7,8-tetrahydro-5,5,8,8-tetramethyl-2-naphthalenyl)carbamoyl]benzoic acid] was tested, and the “Reaction latency” value (Am80 2 mg/kg/day from 2nd day, SCP 0.5 mg/kg/day, lapsed day 1) was 14 s, the “Reaction latency” value (Am80 2 mg/kg/day from 2nd day, SCP 0.5 mg/kg/day, lapsed day 2) was 9 s and the “Reaction latency” value (Am80 2 mg/kg/day from 2nd day, SCP 0.5 mg/kg/day, lapsed day 3) was 23 s. For the same compound, the “Reaction latency” value (Am80 2 mg/kg/day from 2nd day, SCP 0.5 mg/kg/day, lapsed day 4) was 24 s, the “Reaction latency” value (Am80 2 mg/kg/day from 2nd day, SCP 0.5 mg/kg/day, lapsed day 5) was 38 s and the “Reaction latency” value (Am80 5 mg/kg/day from 2nd day, SCP 0.25 mg/kg/day, lapsed day 1) was 14 s. For the same compound, the “Reaction latency” value (Am80 5 mg/kg/day from 2nd day, SCP 0.25 mg/kg/day, lapsed day 2) was 15 s, the “Reaction latency” value (Am80 5 mg/kg/day from 2nd day, SCP 0.25 mg/kg/day, lapsed day 3) was 53 s and the “Reaction latency” value (Am80 5 mg/kg/day from 2nd day, SCP 0.25 mg/kg/day, lapsed day 4) was 80 s. For the same compound, the “Reaction latency” value (Am80 5 mg/kg/day from 2nd day, SCP 0.25 mg/kg/day, lapsed day 5) was 155 s, the “Reaction latency” value (Am80 5 mg/kg/day from 2nd day, SCP 0.5 mg/kg/day, lapsed day 1) was 19 s and the “Reaction latency” value (Am80 5 mg/kg/day from 2nd day, SCP 0.5 mg/kg/day, lapsed day 2) was 18 s. The “Reaction latency” value (Am80 5 mg/kg/day from 2nd day, SCP 0.5 mg/kg/day, lapsed day 3) was 38 s, the “Reaction latency” value (Am80 5 mg/kg/day from 2nd day, SCP 0.5 mg/kg/day, lapsed day 4) was 52 s and the “Reaction latency” value (Am80 5 mg/kg/day from 2nd day, SCP 0.5 mg/kg/day, lapsed day 5) was 71 s. For the same compound, the “Reaction latency” value (Am80 10 mg/kg/day oral from 3rd day, scopolamine 0.5 mg/kg s.c., lapsed day 1 (before treatment)) was 15 s, the “Reaction latency” value (Am80 10 mg/kg/day oral from 3rd day, scopolamine 0.5 mg/kg s.c., lapsed day 2 (before treatment)) was 14 s and the “Reaction latency” value (Am80 10 mg/kg/day oral from 3rd day, scopolamine 0.5 mg/kg s.c., lapsed day 3) was 26 s. The “Reaction latency” value (Am80 10 mg/kg/day oral from 3rd day, scopolamine 0.5 mg/kg s.c., lapsed day 4) was 88 s, the “Reaction latency (second)” value (Am80 10 mg/kg/day oral from 3rd day, scopolamine 0.5 mg/kg s.c., lapsed day 5) was 149** second and the “Reaction latency (second)” value (Am80 10 mg/kg/day oral from 3rd day, scopolamine 0.5 mg/kg s.c., lapsed day 6) was 163** second. For the same compound, the “Reaction latency (second)” value (Am80 10 mg/kg/day oral from 3rd day, scopolamine 0.5 mg/kg s.c., lapsed day 7) was 162** second, the “Reaction latency” value (Am80 12.5 mg/kg/day from 2nd day, SCP 0.5 mg/kg/day, lapsed day 1) was 15 s and the “Reaction latency” value (Am80 12.5 mg/kg/day from 2nd day, SCP 0.5 mg/kg/day, lapsed day 2) was 24 s. For the same compound, the “Reaction latency” value (Am80 12.5 mg/kg/day from 2nd day, SCP 0.5 mg/kg/day, lapsed day 3) was 43 s, the “Reaction latency” value (Am80 12.5 mg/kg/day from 2nd day, SCP 0.5 mg/kg/day, lapsed day 4) was 74 s and the “Reaction latency” value (Am80 12.5 mg/kg/day from 2nd day, SCP 0.5 mg/kg/day, lapsed day 5) was 133 s. For the same compound, the “latent time, course from the start of the treatment” value (Example 1, Am80 10 mg/kg/day oral, scopolamine 0.5 mg/kg s.c., significant differences vs control from the 5th day) was “gradually extended” and the “latent time compared with the control group” value was “gradually extended”.
With `CC1(C)CCC(C)(C)c2cc3c(cc21)Sc1ccccc1N=C3c1ccc(C(=O)O)cc1` [HX630, 4-[2,3-(2,5-dimethyl-2,5-hexano)dibenzo[b,f][1,4]thiazepin-11-yl]benzoic acid] the “latent time compared with the control group” value was “gradually extended”, the “Reaction latency” value (HX630 10 mg/kg/day from 2nd day, SCP 0.5 mg/kg/day, lapsed day 1) was 18 s and the “Reaction latency” value (HX630 10 mg/kg/day from 2nd day, SCP 0.5 mg/kg/day, lapsed day 2) was 21 s. The “Reaction latency” value (HX630 10 mg/kg/day from 2nd day, SCP 0.5 mg/kg/day, lapsed day 3) was 30 s, the “Reaction latency” value (HX630 10 mg/kg/day from 2nd day, SCP 0.5 mg/kg/day, lapsed day 4) was 33 s and the “Reaction latency” value (HX630 10 mg/kg/day from 2nd day, SCP 0.5 mg/kg/day, lapsed day 5) was 51 s.
For `Cc1ccc(C)c2oc(-c3ccc(-c4ccc(C(=O)O)cc4)[nH]3)cc12` [IT-K-1001, 4-[5-(4,7-dimethylbenzofuran-2-yl)pyrrol-2-yl]benzoic acid], the “effect on the action of scopolamine (reaction latency)” value (Example 3, 10 mg/kg oral, scopolamine 0.25 mg/kg) was “markedly inhibited the effect of scopolamine”, the “Reaction latency” value (IT-K-1001 10 mg/kg/day oral, SCP 0.25 mg/kg/day, lapsed day 1) was 22 s and the “Reaction latency” value (IT-K-1001 10 mg/kg/day oral, SCP 0.25 mg/kg/day, lapsed day 2) was 11 s. For the same compound, the “Reaction latency” value (IT-K-1001 10 mg/kg/day oral, SCP 0.25 mg/kg/day, lapsed day 3) was 106 s, the “Reaction latency” value (IT-K-1001 10 mg/kg/day oral, SCP 0.25 mg/kg/day, lapsed day 4) was 115 s and the “Reaction latency” value (IT-K-1001 10 mg/kg/day oral, SCP 0.25 mg/kg/day, lapsed day 5) was 206 s. For the same compound, the “Reaction latency” value (IT-K-1001 10 mg/kg/day oral, SCP 0.25 mg/kg/day, lapsed day 6) was 291 s, the “Reaction latency” value (IT-K-1001 10 mg/kg/day oral, SCP 0.25 mg/kg/day, lapsed day 7) was 300 s and the “Reaction latency” value (IT-K-1001 10 mg/kg/day oral, SCP 0.25 mg/kg/day, lapsed day 8) was 281 s.
With `C[Si](C)(C)c1cc(C(=O)Nc2ccc(C(=O)O)cc2)cc([Si](C)(C)C)c1` [Tac101, 4-[(3,5-bis-trimethylsilylphenyl)-carboxamido]benzoic acid] the “latent time compared with the control group” value was “gradually extended”, the “Reaction latency” value (Tac101 30 mg/kg/day from 2nd day, SCP 0.5 mg/kg/day, lapsed day 1) was 19 s and the “Reaction latency” value (Tac101 30 mg/kg/day from 2nd day, SCP 0.5 mg/kg/day, lapsed day 2) was 21 s. For the same compound, the “Reaction latency” value (Tac101 30 mg/kg/day from 2nd day, SCP 0.5 mg/kg/day, lapsed day 3) was 47 s, the “Reaction latency” value (Tac101 30 mg/kg/day from 2nd day, SCP 0.5 mg/kg/day, lapsed day 4) was 69 s and the “Reaction latency” value (Tac101 30 mg/kg/day from 2nd day, SCP 0.5 mg/kg/day, lapsed day 5) was 107 s.
